The assay deals with T1, Na^+/K^+ ATPase.
T1 construct: gene ATP1A1; enzyme isolated from porcine cerebral cortex
Description: ATPase enzymatic activity assay (Sigma) with isolated porcine cerebral cortex enzyme. The assay is classed as biochemical, Sus scrofa.

For `C[C@]12CCC(=NOCCN)C[C@@H]1C(=O)C[C@@H]1[C@@H]2CC[C@]2(C)C(=O)CC[C@@H]12` [istaroxime, (E, Z) 3-(2-aminoethoxyimino)-5α-androstane-6, 17-trione], it took 408 nM to reach half-maximal inhibition (IC50).

The values are drawn from publication PMC5029711, “Functional characterization and anti-cancer action of the clinical phase II cardiac Na^+/K^+ ATPase inhibitor istaroxime: in vitro and in vivo properties and cross talk with the membrane androgen receptor” (Oncotarget, 2016).
